The source of these data is PubChem BioAssay AID492970 (The Scripps Research Institute Molecular Screening Center, 2010).

The assay deals with Protein-arginine deiminase type-4 (Homo sapiens) (UniProt Q9UM07). Briefly: IC50 against protein arginine deiminase 4 – biochemical, fluorescence readout, dose response (AID 492970). As to conditions: recombinant PAD4, BAEE citrulline colorimetric readout.
Chain of Protein-arginine deiminase type-4 (Homo sapiens) (Q9UM07 whole entry, looked up): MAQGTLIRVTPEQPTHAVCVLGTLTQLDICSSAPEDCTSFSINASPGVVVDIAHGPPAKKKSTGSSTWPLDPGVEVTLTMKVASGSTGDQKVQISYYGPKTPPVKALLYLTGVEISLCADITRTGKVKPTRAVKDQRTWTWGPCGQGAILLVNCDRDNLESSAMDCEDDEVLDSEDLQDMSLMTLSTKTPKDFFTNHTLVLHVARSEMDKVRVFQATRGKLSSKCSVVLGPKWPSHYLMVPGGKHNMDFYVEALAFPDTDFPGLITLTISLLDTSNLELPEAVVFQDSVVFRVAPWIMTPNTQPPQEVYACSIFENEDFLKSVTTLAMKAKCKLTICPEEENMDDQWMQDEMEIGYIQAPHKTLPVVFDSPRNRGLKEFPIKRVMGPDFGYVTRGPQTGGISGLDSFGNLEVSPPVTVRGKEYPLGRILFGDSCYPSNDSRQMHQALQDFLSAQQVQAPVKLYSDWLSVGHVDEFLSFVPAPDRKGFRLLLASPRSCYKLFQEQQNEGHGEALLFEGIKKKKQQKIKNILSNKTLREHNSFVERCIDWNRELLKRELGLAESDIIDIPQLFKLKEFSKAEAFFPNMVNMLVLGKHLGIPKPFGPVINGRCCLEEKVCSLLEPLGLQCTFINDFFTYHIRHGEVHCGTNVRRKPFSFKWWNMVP

For the compound `COC1=C(N)C(=O)c2nc(-c3nc(C(=O)O)c(C)c(-c4ccc(OC)c(OC)c4O)c3N)ccc2C1=O`, the IC50 was 2500 nM.
